# Earlier results as cited in US9943503B1, “Pharmaceutical composition for treating bacterial and viral infections” (priority 2017, dated 2018).
# Tested on: common cold
# Conditions: adults; review of evidence
row,Compound,"prevention of the common cold, evidence"
1,C=CCS[S+]([O-])CC=C (centres unmarked) [Allicin],highly effective
2,"O=C1O[C@H]([C@@H](O)CO)C(O)=C1O [vitamin C, ascorbic acid]",demonstrated benefit
